Results reported in ChEMBL document CHEMBL1201862, “PubChem BioAssay data set” (2004).
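1) Cells in 96-well plates. 2) Compound, 48 h, 5 concentrations. 3) Linear interpolation between surrounding doses. 4) Unreached endpoint = highest concentration. GI50 marks 50% less growth.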 The source made the active and inactive calls. Cut-off read from the data, not from the text of the source: active = GI50 up to about 1.1 µM and inactive = higher.

What was measured:
Test in all cases: DTP human tumour cell line panel, 48 h
U-251 = test system: U-251
A498 = test system: A498
UACC-62 = test system: UACC-62
HT-29 = test system: HT-29
KM12 = test system: KM12
SK-MEL-5 = test system: SK-MEL-5
SF-268 = test system: SF-268
COLO 205 = test system: COLO 205
HCC 2998 = test system: HCC 2998
SF-295 = test system: SF-295
LOX IMVI = test system: LOX IMVI
786-0 = test system: 786-0
M19-MEL = test system: M19-MEL
HCT-116 = test system: HCT-116
SF-539 = test system: SF-539
SN12C = test system: SN12C
OVCAR-8 = test system: OVCAR-8
SK-OV-3 = test system: SK-OV-3
NCI-H226 = test system: NCI-H226
ACHN = test system: ACHN
KM-20L2 = test system: KM-20L2
Malme-3M = test system: Malme-3M
NCI-H23 = test system: NCI-H23
HOP-18 = test system: HOP-18
IGROV-1 = test system: IGROV-1
EKVX = test system: EKVX
LXFL 529 = test system: LXFL 529
UACC-257 = test system: UACC-257
NCI-H522 = test system: NCI-H522
RXF 631 = test system: RXF 631
NCI-H460 = test system: NCI-H460
CAKI-1 = test system: CAKI-1
SR = test system: SR
SK-MEL-2 = test system: SK-MEL-2
HOP-92 = test system: HOP-92
DMS-273 = test system: DMS-273
M14 = test system: M14
RPMI-8226 = test system: RPMI-8226
CCRF-CEM = test system: CCRF-CEM
OVCAR-4 = test system: OVCAR-4
SK-MEL-28 = test system: SK-MEL-28
SW-620 = test system: SW-620
K562 = test system: K562
SNB-78 = test system: SNB-78
HL-60 = test system: HL-60
A549 = test system: A549
DMS-114 = test system: DMS-114
RXF 393 = test system: RXF 393
OVCAR-3 = test system: OVCAR-3
DLD-1 = test system: DLD-1
HOP-62 = test system: HOP-62
OVCAR-5 = test system: OVCAR-5
SNB-19 = test system: SNB-19
TK-10 = test system: TK-10
MOLT-4 = test system: MOLT-4
UO-31 = test system: UO-31
HCT-15 = test system: HCT-15
SNB-75 = test system: SNB-75
XF498 = test system: XF498

## CCOc1cc2c(cc1OC)c[n+](C)c1c3cc(OC)c(OC)cc3ccc21
U-251
  GI50: > 33.4 µM (inactive)
A498
  GI50: 47.6 µM (inactive)
UACC-62
  GI50: > 91 µM (inactive)
HT-29
  GI50: > 100 µM (inactive)
KM12
  GI50: 72.4 µM (inactive)
SK-MEL-5
  GI50: > 50.4 µM (inactive)
SF-268
  GI50: > 93.3 µM (inactive)
COLO 205
  GI50: 31.6 µM (inactive)
HCC 2998
  GI50: > 100 µM (inactive)
SF-295
  GI50: > 100 µM (inactive)
LOX IMVI
  GI50: 46.6 µM (inactive)
786-0
  GI50: > 42.1 µM (inactive)
M19-MEL
  GI50: > 56.1 µM (inactive)
HCT-116
  GI50: 49.1 µM (inactive)
SF-539
  GI50: > 100 µM (inactive)
SN12C
  GI50: 77.4 µM (inactive)
OVCAR-8
  GI50: > 60.3 µM (inactive)
SK-OV-3
  GI50: > 100 µM (inactive)
NCI-H226
  GI50: > 57.1 µM (inactive)
ACHN
  GI50: > 100 µM (inactive)
KM-20L2
  GI50: > 100 µM (inactive)
Malme-3M
  GI50: > 77.6 µM (inactive)
NCI-H23
  GI50: > 93.5 µM (inactive)
HOP-18
  GI50: > 48.6 µM (inactive)
IGROV-1
  GI50: > 66.5 µM (inactive)
EKVX
  GI50: > 100 µM (inactive)
LXFL 529
  GI50: 27 µM (inactive)
UACC-257
  GI50: > 61.4 µM (inactive)
NCI-H522
  GI50: > 52.1 µM (inactive)
RXF 631
  GI50: 22.6 µM (inactive)
NCI-H460
  GI50: > 73.6 µM (inactive)
CAKI-1
  GI50: > 67.8 µM (inactive)
SR
  GI50: 46.6 µM (inactive)
SK-MEL-2
  GI50: 33.3 µM (inactive)
HOP-92
  GI50: 27 µM (inactive)
DMS-273
  GI50: 27.8 µM (inactive)
M14
  GI50: > 100 µM (inactive)
RPMI-8226
  GI50: 40.7 µM (inactive)
CCRF-CEM
  GI50: 35.9 µM (inactive)
OVCAR-4
  GI50: > 100 µM (inactive)
SK-MEL-28
  GI50: > 64.1 µM (inactive)
SW-620
  GI50: 46.5 µM (inactive)
K562
  GI50: > 34.3 µM (inactive)
SNB-78
  GI50: > 57 µM (inactive)
HL-60
  GI50: 17.2 µM (inactive)
A549
  GI50: > 100 µM (inactive)
DMS-114
  GI50: 18.2 µM (inactive)
RXF 393
  GI50: 34 µM (inactive)
OVCAR-3
  GI50: > 100 µM (inactive)
DLD-1
  GI50: > 78.2 µM (inactive)
HOP-62
  GI50: > 81.7 µM (inactive)
OVCAR-5
  GI50: > 49.1 µM (inactive)
SNB-19
  GI50: > 52.5 µM (inactive)
TK-10
  GI50: 59.4 µM (inactive)
MOLT-4
  GI50: > 81.3 µM (inactive)
UO-31
  GI50: > 100 µM (inactive)
HCT-15
  GI50: > 75.2 µM

## c1ccc(C(c2ccccc2)c2cccnc2)cc1
U-251
  GI50: > 100 µM (inactive)
A498
  GI50: > 100 µM (inactive)
UACC-62
  GI50: > 100 µM (inactive)
HT-29
  GI50: > 100 µM (inactive)
KM12
  GI50: > 100 µM (inactive)
SK-MEL-5
  GI50: 83.8 µM (inactive)
SF-268
  GI50: > 100 µM (inactive)
COLO 205
  GI50: > 100 µM (inactive)
HCC 2998
  GI50: > 100 µM (inactive)
SF-295
  GI50: > 100 µM (inactive)
LOX IMVI
  GI50: > 100 µM (inactive)
786-0
  GI50: > 100 µM (inactive)
M19-MEL
  GI50: > 100 µM (inactive)
HCT-116
  GI50: > 100 µM (inactive)
SF-539
  GI50: > 100 µM (inactive)
SN12C
  GI50: > 100 µM (inactive)
OVCAR-8
  GI50: 99.3 µM (inactive)
SK-OV-3
  GI50: > 100 µM (inactive)
NCI-H226
  GI50: > 100 µM (inactive)
ACHN
  GI50: > 100 µM (inactive)
KM-20L2
  GI50: > 100 µM (inactive)
Malme-3M
  GI50: > 100 µM (inactive)
NCI-H23
  GI50: 65.8 µM (inactive)
HOP-18
  GI50: > 100 µM (inactive)
IGROV-1
  GI50: > 100 µM (inactive)
EKVX
  GI50: 99.5 µM (inactive)
UACC-257
  GI50: > 100 µM (inactive)
RXF 631
  GI50: > 100 µM (inactive)
SNB-75
  GI50: 69 µM (inactive)
NCI-H460
  GI50: > 100 µM (inactive)
CAKI-1
  GI50: > 100 µM (inactive)
SK-MEL-2
  GI50: > 100 µM (inactive)
DMS-273
  GI50: > 100 µM (inactive)
M14
  GI50: > 100 µM (inactive)
RPMI-8226
  GI50: 46.1 µM (inactive)
CCRF-CEM
  GI50: > 100 µM (inactive)
OVCAR-4
  GI50: > 100 µM (inactive)
SK-MEL-28
  GI50: > 100 µM (inactive)
SW-620
  GI50: > 100 µM (inactive)
K562
  GI50: 38.3 µM (inactive)
SNB-78
  GI50: > 100 µM (inactive)
A549
  GI50: 88.1 µM (inactive)
DMS-114
  GI50: 82 µM (inactive)
OVCAR-3
  GI50: > 100 µM (inactive)
DLD-1
  GI50: > 100 µM (inactive)
HOP-62
  GI50: > 100 µM (inactive)
OVCAR-5
  GI50: > 100 µM (inactive)
SNB-19
  GI50: > 100 µM (inactive)
TK-10
  GI50: > 100 µM (inactive)
UO-31
  GI50: 97.9 µM (inactive)
HCT-15
  GI50: > 100 µM

## COc1cc2c(c(OC)c1)C(=O)C(=O)C(CC1(C)OCCCO1)=C2
U-251
  GI50: 15.3 µM (inactive)
A498
  GI50: 17.2 µM (inactive)
UACC-62
  GI50: 7.91 µM (inactive)
HT-29
  GI50: 18.4 µM (inactive)
KM12
  GI50: 16 µM (inactive)
SK-MEL-5
  GI50: 6.05 µM (inactive)
SF-268
  GI50: 14.7 µM (inactive)
COLO 205
  GI50: 3.49 µM (inactive)
HCC 2998
  GI50: 16.4 µM (inactive)
SF-295
  GI50: 13.9 µM (inactive)
LOX IMVI
  GI50: 5.01 µM (inactive)
786-0
  GI50: 9.1 µM (inactive)
M19-MEL
  GI50: 2.32 µM (inactive)
HCT-116
  GI50: 4.38 µM (inactive)
SF-539
  GI50: 17.5 µM (inactive)
SN12C
  GI50: 13.2 µM (inactive)
OVCAR-8
  GI50: 11.5 µM (inactive)
SK-OV-3
  GI50: 16.6 µM (inactive)
NCI-H226
  GI50: 6.17 µM (inactive)
ACHN
  GI50: 6.61 µM (inactive)
KM-20L2
  GI50: 17.9 µM (inactive)
Malme-3M
  GI50: 8.2 µM (inactive)
NCI-H23
  GI50: 9.12 µM (inactive)
HOP-18
  GI50: 10.4 µM (inactive)
IGROV-1
  GI50: 14.2 µM (inactive)
EKVX
  GI50: 15.9 µM (inactive)
LXFL 529
  GI50: 4.51 µM (inactive)
UACC-257
  GI50: 14.1 µM (inactive)
NCI-H522
  GI50: 1.4 µM (inactive)
RXF 631
  GI50: 17.4 µM (inactive)
SNB-75
  GI50: 19.5 µM (inactive)
NCI-H460
  GI50: 13.3 µM (inactive)
CAKI-1
  GI50: 5.43 µM (inactive)
XF498
  GI50: 12.8 µM (inactive)
SR
  GI50: 3.3 µM (inactive)
SK-MEL-2
  GI50: 16 µM (inactive)
HOP-92
  GI50: 1.89 µM (inactive)
DMS-273
  GI50: 13.6 µM (inactive)
M14
  GI50: 12 µM (inactive)
RPMI-8226
  GI50: 3.56 µM (inactive)
CCRF-CEM
  GI50: 1.91 µM (inactive)
OVCAR-4
  GI50: 6.22 µM (inactive)
SK-MEL-28
  GI50: 15.2 µM (inactive)
SW-620
  GI50: 1.79 µM (inactive)
K562
  GI50: 2.29 µM (inactive)
SNB-78
  GI50: 9.95 µM (inactive)
HL-60
  GI50: 1.85 µM (inactive)
A549
  GI50: 10.9 µM (inactive)
DMS-114
  GI50: 3.59 µM (inactive)
RXF 393
  GI50: 4.38 µM (inactive)
OVCAR-3
  GI50: 3.8 µM (inactive)
DLD-1
  GI50: 2.93 µM (inactive)
HOP-62
  GI50: 17.5 µM (inactive)
OVCAR-5
  GI50: 22.9 µM (inactive)
SNB-19
  GI50: 22.2 µM (inactive)
TK-10
  GI50: 6.14 µM (inactive)
MOLT-4
  GI50: 3.27 µM (inactive)
UO-31
  GI50: 12.7 µM (inactive)
HCT-15
  GI50: 6.25 µM
